Measurements from patent US8765803B1, “Rab7 GTPase inhibitors and related methods of treatment” (STC.UNM, priority 2011, dated 2014).
Values after ≈ are worked out from the molar mass of the structure shown. Values joined by “and” are separate entries in the source; they are usually repeats but may differ in a detail not shown here. Identical values can stand only once. Like-named read-outs stand apart in the source and are kept apart here.

Assays:
Rab7 GTPase = target: T1, Rab7 GTPase (UniProt P18067); experiment: Multiplex bead-based flow cytometry dose-response, BODIPY-FL-GTP binding to GST-tagged GTPase; details: for EC50: mean of n replicates; for % Res: percent response
T1 construct: fused on or other part: GST tag, used to hold the protein on glutathione beads

U937 cells = experiment: Cytotoxicity of compounds, cell density and viability; format: cell-based; details: 24 h
Experimental: U937 cells were grown to a density of 0.4×10^6 cells/mL Compounds were added to a final concentration of 20 μM or otherwise indicated. As a control, cells were treated with DMSO of the same volume. After 24 h incubation, the density and viability of the cells were measured with Countess Cell Counter according to the protocols from the manufacturer.

[1] = Solubility in PBS and assay media, UV absorbance detection; format: physicochemical
Experimental: Solubility was measured in phosphate buffered saline (PBS) at room temperature (23° C.). PBS by definition is 137 mM NaCl, 2.7 mM KCl, 10 mM sodium phosphate dibasic, 2 mM potassium phosphate monobasic and a pH of 7.4. Detection was based on UV absorbance. […]. Solubility was also assessed in the each of the four media used in the individual assays. […]

[2] = test system: Ras-related GTPases (Cdc42 wt, Rac1wt, Rac1Q61L, Rab2 wt, Rab7 wt, and H-Ras wt); details: for Activity for all GTPases tested: multiplex GTPase screen; for Loss in potency across GTPases relative to CID1067700: compared across multiple/all GTPases
Experimental: The eight GTPases were grouped into two sets: Rab7, H-Ras wild type and its V12 mutant, and Cdc42 and its L61 mutant were assayed in a buffer containing 1 mM EDTA, while Rho, Rac1 and its L61 mutant, and Cdc42 and its L61 mutant were assayed in the same buffer but instead containing 1 mM Mg^2+ with Cdc42 and its mutant being tested in both buffers. Besides 1 mM EDTA or 1 mM Mg^2+, the buffer contained 30 mM HEPES, pH 7.5, 40 mM KCl, 100 mM NaCl, 0.1% (v/v) NP-40 and 1% BSA. For each multiplex reaction, an extra set of beads was included to serve as scavengers to bind any proteins that dissociate from their assigned bead set and thereby reduce interference due to protein dissociation during the assay. […] Briefly, each individual GST-tagged enzyme was incubated with 4 μm glutathione-coated microsphere beads overnight with gentle rotation. The microsphere beads have different red fluorescence dyes incorporated and therefore could be separated by a flow cytometer. The unbound enzyme was removed by sufficient washing with the buffer. The bead sets were then combined and dispensed to 384-well plates at 5 μL/well. For one plate, 0.5 μg each of the enzymes and 4.0×10^4 of each bead were used. Then 100 nL compound was added using Biomek FX followed by the addition of 5 μL/well of BODIPY-FL-GTP (ribose-linked BODIPY). […] The beads were aspirated and delivered with the HyperCyt® instrument and read on CyAnADP flow cytometer. Forward scatter and side scatter was used to define the whole bead population. […] The data was analyzed by the HyperView® software developed by Dr. Bruce Edward at the University of New Mexico.
Briefly, six sets of beads (each with a unique red fluorescence intensity) were individually coated with six representative GST-tagged Ras-related GTPases (Cdc42 wt, Rac1wt, Rac1Q61L, Rab2 wt, Rab7 wt, and H-Ras wt) (FIG. 29A). The individually conjugated beads were then assayed in the presence of individual compounds in the Molecular Libraries Small Molecule Repository using a HyperCyt flow cytometry to identify molecules that altered the binding of fluorescent nucleotide to Ras-family GTPases (36).

[3] = Assay format EDTA (1 mM EDTA buffer, 100 nM BODIPY-FL-GTP)
[4] = Assay format Mg (1 mM Mg2+ buffer, 1 nM BODIPY-FL-GTP)
[5] = 23 °C, pH 7.4, aqueous buffer, Solubility
[6] = pH 7.5, aqueous with cosolvent or surfactant or cyclodextrin, Solubility

Row | EC50 (Rab7 GTPase; [3]) [nM] | % Res (Rab7 GTPase; Assay format EDTA) [%] | EC50 (Rab7 GTPase; [4]) [nM] | % Res (Rab7 GTPase; Assay format Mg) [%] | Compound | Cell viability of U937 cells after treatment (U937 cells; 20 μM) [%] | further results
1 | 140 ± 160 | 97 ± 15 | 170 ± 210 | 45 ± 2 | CC1(C)Cc2c(sc(NC(=S)NC(=O)c3ccccc3F)c2C(=O)O)CO1 [CID53301935, 2-(3-(2-fluorobenzoyl)thioureido)-5,5-dimethyl-5,7-dihydro-4H-thieno[2,3-c]pyran-3-carboxylic acid] | 96 | 
2 | 410 | 95 | 520 | 47 | Cc1ccccc1C(=O)NC(=S)Nc1sc2c(c1C(=O)O)CC(C)(C)OC2 [CID53377404] |  | 
3 | 810 | 89 | 460 | 39 | CC1(C)Cc2c(sc(NC(=S)NC(=O)C3CCCCC3)c2C(=O)O)CO1 [CID53377396] |  | 
4 | 35 | 72 | 33 | 56 | O=C(NC(=S)Nc1sc2c(c1C(=O)O)CC1(CCCC1)OC2)c1ccccc1 [CID53377403] |  | 
5 | 430 ± 680 | 86 ± 10 | 650 ± 870 | 35 ± 4 | CC1(C)Cc2c(sc(NC(=S)NC(=O)c3ccccc3Br)c2C(=O)O)CO1 [CID53301931, 2-(3-(2-Bromobenzoyl)thioureido)-5,5-dimethyl-5,7-dihydro-4H-thieno[2,3-c]pyran-3-carboxylic acid] | 94 | solubility [1]: >93 μg/mL,; solubility [1, 5]: > 93 µg/mL and > 198 µM; solubility ([1]; pH 7.5): >93 μg/mL,; solubility ([1]; pH 7.5, read-out: Solubility): >198 µM; solubility ([1]; read-out: Solubility): >198 µM
6 |  |  |  |  | COC(=O)c1c(NC(=S)NC(=O)c2ccccc2)sc2c1CC(C)(C)OC2 [CID1251121, Methyl 2-(3-benzoylthioureido)-5,5-dimethyl-5,7-dihydro-4H-thieno[2,3-c]pyran-3-carboxylate] |  | Activity for all GTPases tested [2]: complete loss of activity
7 | 470 | 18 | 220 | 47 | CC(C)(C)C1Cc2c(sc(NC(=S)NC(=O)c3ccccc3)c2C(=O)O)CO1 (centres unmarked) [CID53377399] |  | 
8 |  |  |  |  | O=C(NC(=S)Nc1sc2c(c1C(=O)O)CCOC2)c1ccccc1 [CID46916266, 2-(3-benzoylthioureido)-5,7-dihydro-4H-thieno[2,3-c]pyran-3-carboxylic acid] |  | Cell viability of U937 cells after treatment (U937 cells; 100 μM): 92% (100 μM)
9 | 95 | 100 | 77 | 39 | CC1(C)Cc2c(sc(NC(=S)NC(=O)c3ccc(F)cc3)c2C(=O)O)CO1 [CID53377405, 2-(3-(4-Fluorobenzoyl)thioureido)-5,5-dimethyl-5,7-dihydro-4H-thieno[2,3-c]pyran-3-carboxylic acid] | 94 | solubility [1]: 67.6 μg/mL,; solubility [1, 5]: 85.7 µg/mL and 210 µM; solubility ([1]; pH 7.5): 69.1 μg/mL,; solubility [1, 6]: 98.2 µg/mL and 240 µM; solubility ([1]; pH 7.5, read-out: Solubility): 169.2 µM (≈ 69.1 µg/mL); solubility ([1]; read-out: Solubility): 165.5 µM (≈ 67.6 µg/mL)
10 | 140 ± 70 | 94 ± 14 | 140 ± 110 | 54 ± 2 | COc1ccc(C(=O)NC(=S)Nc2sc3c(c2C(=O)O)CC(C)(C)OC3)cc1 [CID53301932, 2-(3-(4-Methoxybenzoyl)thioureido)-5,5-dimethyl-5,7-dihydro-4H-thieno[2,3-c]pyran-3-carboxylic acid] | 96 | 
11 | 150 ± 130 | 68 ± 25 | 320 | 37 | COc1cccc(C(=O)NC(=S)Nc2sc3c(c2C(=O)O)CC(C)(C)OC3)c1 [CID53301934, 2-(3-(3-Methoxybenzoyl)thioureido)-5,5-dimethyl-5,7-dihydro-4H-thieno[2,3-c]pyran-3-carboxylic acid] | 94 | solubility [1]: 54.5 μg/mL,; solubility [1, 5]: 36.5 µg/mL and 86.8 µM; solubility ([1]; pH 7.5): 29.7 μg/mL,; solubility [1, 6]: 33.8 µg/mL and 80.4 µM; solubility ([1]; pH 7.5, read-out: Solubility): 70.6 µM (≈ 29.7 µg/mL); solubility ([1]; read-out: Solubility): 129.6 µM (≈ 54.5 µg/mL)
12 | 1160 | 93 | 360 | 30 | Cc1cccc(C(=O)NC(=S)Nc2sc3c(c2C(=O)O)CC(C)(C)OC3)c1 [CID53377400] |  | 
13 | 2510 ± 2100 | 41 ± 0 | > 100000 |  | CC1(C)Cc2c(sc(NC(=S)NC(=O)c3cccc(Br)c3)c2C(=O)O)CO1 [CID53301936] |  | 
14 | 25 | 103 | 25 | 56 | CC1(C)Cc2c(sc(NC(=S)NC(=O)c3cccs3)c2C(=O)O)CO1 [CID53377398] |  | 
15 |  |  |  |  | CC1(C)Cc2c(sc(NC(=S)Nc3ccccc3)c2C(=O)O)CO1 [CID1280844, 5,5-dimethyl-2-(3-phenylthioureido)-5,7-dihydro-4H-thieno[2,3-c]pyran-3-carboxylic acid] |  | Activity for all GTPases tested [2]: inactive
16 | 66 ± 20 | 97 ± 5 | 63 ± 10 | 53 ± 1 | CC1(C)CCc2sc(NC(=S)NC(=O)c3ccccc3)c(C(=O)O)c2C1 [CID53301937] | 91 | 
17 | 300 ± 180 | 93 ± 6 | 270 ± 220 | 41 ± 6 | CC1(C)Cc2c(sc(NC(=S)NC(=O)c3ccc(Br)cc3)c2C(=O)O)CO1 [CID53301933] | 93 | 
18 | 140 | 102 | 97 | 40 | Cc1ccc(C(=O)NC(=S)Nc2sc3c(c2C(=O)O)CC(C)(C)OC3)cc1 [CID53377395] |  | 
19 | 37 | 109 | 35 | 43 | CCC1(C)Cc2c(sc(NC(=S)NC(=O)c3ccccc3)c2C(=O)O)CO1 (centres unmarked) [CID53377401] |  | 
20 |  |  |  |  | CC1(C)Cc2c(sc(NC(=O)NC(=O)c3ccccc3)c2C(=O)O)CO1 [CID46916265, 2-(3-Benzoylureido)-5,5-dimethyl-5,7-dihydro-4H-thieno[2,3-c]pyran-3-carboxylic acid] |  | Cell viability of U937 cells after treatment (U937 cells; 100 μM): 98% (100 μM); Loss in potency across GTPases relative to CID1067700 [2]: 35 fold; Loss in potency across GTPases relative to CID1067700 ([2]; listed as SID 99381130): 7 fold
21 | 320 ± 90 | 90 ± 6 | 290 ± 190 | 39 ± 3 | CC1(C)Cc2c(sc(NC(=S)NC(=O)c3cccc(F)c3)c2C(=O)O)CO1 [CID53301930] | 92 | 
22 | 74 | 105 | 82 | 63 | CC1(C)Cc2c(sc(NC(=S)NC(=O)c3ccco3)c2C(=O)O)CO1 [CID53377402] |  | 
23 | 1120 | 52 |  |  | COc1ccccc1C(=O)NC(=S)Nc1sc2c(c1C(=O)O)CC(C)(C)OC2 [CID53377397] |  | 
24 |  |  |  |  | CC1(C)Cc2c(sc(NC(=O)Cc3ccccc3)c2C(=O)O)CO1 [CID740871, 5,5-dimethyl-2-(2-phenylacetamido)-5,7-dihydro-4H-thieno[2,3-c]pyran-3-carboxylic acid] |  | Activity for all GTPases tested [2]: complete loss of activity; Activity for all GTPases tested ([2]; listed as SID 9938117): inactive
25 |  |  |  |  | CC1Cc2c(sc(NC(=S)NC(=O)c3ccccc3)c2C(=O)O)CO1 (centres unmarked) [CID46916263, 2-(3-benzoylthioureido)-5-methyl-5,7-dihydro-4H-thieno[2,3-c]pyran-3-carboxylic acid] |  | Cell viability of U937 cells after treatment (U937 cells; 100 μM): 94% (100 μM)
